The structures appear in SMILES notation. Active and inactive are the calls of the source.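 Rule for the calls: active = compounds that boost mutant procaspase-3 substrate cleavage with EC50 of 10000 nM or lower; inactive = EC50 above 10000 nM.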

Chain of Caspase-3 (Homo sapiens) (P42574 whole entry D9A/D28A/D175A): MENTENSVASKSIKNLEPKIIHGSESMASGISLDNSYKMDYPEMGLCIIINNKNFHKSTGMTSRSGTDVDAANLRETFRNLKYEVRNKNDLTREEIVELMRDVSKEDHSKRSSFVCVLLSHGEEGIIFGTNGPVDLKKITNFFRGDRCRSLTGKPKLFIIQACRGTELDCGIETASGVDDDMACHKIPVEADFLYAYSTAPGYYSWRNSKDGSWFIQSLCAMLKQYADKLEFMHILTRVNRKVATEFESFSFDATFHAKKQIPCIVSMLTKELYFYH

The assay concerns the target Caspase-3 (Homo sapiens) (UniProt P42574). The experiment in a line: activators of human procaspase-3 D3A mutant, late-stage follow-up, biochemical, absorbance, PC-3 D3A mutant, powder samples (AID 504816). As to conditions: recombinant PC-3 D3A, Ac-DEVD-pNA absorbance 405 nm.
The term EC50 denotes the concentration needed to bring the measured effect to its halfway point. Consider `CC(NC(=O)c1cc2cc([N+](=O)[O-])ccc2oc1=O)C1CCCO1` (centres undefined), for which the EC50 result was “inactive”.
On to `COc1ccccc1Nc1nc2c(C)cccc2cc1C#N`, for which the EC50 is > 85.3 µM (inactive).
As to `CC(=O)Oc1cccc2c1C(=O)c1c(OC(C)=O)cc(C(=O)O)cc1C2=O`, the EC50 result was “inactive”.
With `C=CCn1c(=NC(=O)c2cc(-c3cccs3)nc3ccccc23)sc2cc(S(N)(=O)=O)ccc21`, the EC50 is 3.19 µM.

Source of the values: PubChem BioAssay AID504816 (The Scripps Research Institute Molecular Screening Center, 2011).
